Reference: BindingDB's records for doi:10.1021/jm00008a010 (1995)
pKi: −log10 of the molar value.

Experiment: In vitro binding affinity towards 5-hydroxytryptamine 1D receptor beta by using [3H]5-HT as radioligand

## CCCNC1CCc2cccc(OS(=O)(=O)C(F)(F)F)c2C1 (stereo unspecified) [Trifluoro-methanesulfonic acid 7-propylamino-5,6,7,8-tetrahydro-naphthalen-1-yl ester]
  pKi: 6.77
